28 molecules from patent US6228868A, “Oxazoline antiproliferative agents” (Abbott Laboratories, priority 1999, dated 2001) can be followed below.

In one assay the test system is NCI-H460 cells. As to the kind of experiment: 48-hour cellular proliferation assay, sulforhodamine stain (human lung large cell carcinoma, MDR negative). In kind it is cell-based. The settings on record: for IC50 / inhibition at 100 µM: Homo sapiens; for IC50: NCI-H460 cells. On the procedure:
(§1) Compounds of this invention were tested in a 48-hour cellular proliferation assay that uses human colon adenocarcinoma, MDR positive (HCT-15) cells, and human lung large cell carcinoma, MDR negative (NCI-H460) cells, in the 96-well microtitre format described in Skehan P., et al. New Colorimetric Cytotoxicity Assay for Anticancer Drug Screening. 1990, J. Natl. Cancer Inst. 82:1107-1112, hereby incorporated by reference. Briefly, the wells of a microtitre plate were charged sequentially with cultured cells and compounds of the invention (1.0×10^-4 to 1.0×10^-11 M in 10% DMSO prepared by dissolving compounds of the invention in DMSO and adding 11 μL of the DMSO solution to 100 μL of culture medium for a final DMSO concentration of 10%). Two of the following controls were also present in each microtitre plate: a solvent (DMSO) control without drug that yielded a 0% inhibition level and a trichloroacetic acid-treated well that yielded a 100% inhibition level. The cells were grown in culture (37° C., 5% CO2 atmosphere) for 48 hours then fixed by the addition of trichloroacetic acid. The wells were stained with sulforhodamine, washed with 1% acetic acid, and treated with 0.01 M tris buffer (100 μL) to solubilize the adherent dye. The absorbance of the dye solution was measured with a Molecular Devices SpectraMax340 plate reader. Percent inhibition and Inhibitory Concentrations (IC50) values were obtained by calculating the proportional response of the experimental values to the absorbance values of the controls.

Another assay has as its system HCT-15 cells. Nature of the assay: 48-hour cellular proliferation assay, sulforhodamine stain (human colon adenocarcinoma, MDR positive). The conditions noted are these: for IC50 / inhibition at 100 µM: Homo sapiens. In kind it is cell-based. On the procedure: as §1

Consider `COc1cc(C2CN=C(c3cccc4[nH]ccc34)O2)cc(OC)c1OC` (stereo not drawn) [Example 29, 2-(4-indolyl)-5-(3,4,5-trimethoxyphenyl)-Δ2,3-oxazoline], for which the IC50 worked out at 60 nM in the assay on NCI-H460 cells (values in nM) and 39 nM with HCT-15 cells (values in nM).
For `COc1ccc(C2=NCC(c3cc(OC)c(OC)c(OC)c3)O2)cc1` (stereo not drawn) [Example 3, 2-(4-methoxyphenyl)-5-(3,4,5-trimethoxyphenyl)-Δ2,3-oxazoline], the inhibition at 100 µM was 100% in the assay on NCI-H460 cells (NCI-460 cells, 10^-4 M) and 100% in the assay with HCT-15 cells (10^-4 M).
Take `COc1cc(C2CN=C(c3cccc4c3ccn4C)O2)cc(OC)c1OC` (stereo not drawn) [Example 30, 2-(1-methylindol-4-yl)-5-(3,4,5-trimethoxyphenyl)-Δ2,3-oxazoline]: the IC50 in the assay with NCI-H460 cells (values in nM) is 28 nM; in the assay with HCT-15 cells (values in nM), 24 nM.
On to `COc1cc(C2CN=C(c3ccc4c(ccn4C(=S)SC)c3)O2)cc(OC)c1OC` (stereo not drawn) [Example 56, 2-(1-methlthiothiocarbonylindol-5-yl)-5-(3,4,5-trimethoxyphenyl)-Δ2,3-oxazoline], for which the IC50 stood at 6000 nM with NCI-H460 cells (values given in μM) and 12000 nM with HCT-15 cells (values given in μM).
As for `COc1cc(C2CN=C(c3ccc4c(c3)cc(C)n4C)O2)cc(OC)c1OC` (stereo not drawn) [Example 71], the half-inhibitory concentration (IC50) in the assay with NCI-H460 cells (values in nM) amounted to 17 nM; in the assay with HCT-15 cells (values in nM), 5 nM.
In the case of `COc1cc(C2CN=C(c3cc(F)c4c(ccn4C)c3)O2)cc(OC)c1OC` (stereo not drawn) [Example 64, 2-(1-methyl-7-fluoro-5-indolyl)-5-(3,4,5-trimethoxyphenyl)-Δ2,3-oxazoline], the IC50 in the assay with NCI-H460 cells (values in nM) amounted to 2.9 nM; in the assay on HCT-15 cells (values in nM), 3.96 nM.
Turning to `COc1ccc(C2=NCC(c3cc(OC)c(OC)c(OC)c3)O2)cc1OC(C)=O` (stereo not drawn) [Example 20, 2-(3-acetoxy-4-methoxyphenyl)-5-(3,4,5-trimethoxyphenyl)-Δ2,3-oxazoline], the inhibition at 100 µM in the assay with NCI-H460 cells (NCI-460 cells, 10^-4 M) was 100%; with HCT-15 cells (10^-4 M), 91%.
Regarding `COc1cc(C2CN=C(c3ccc4c(ccn4CO)c3)O2)cc(OC)c1OC` (stereo not drawn) [Example 69, 2-(1-hydroxymethylindol-5-yl)-5-(3,4,5-trimethoxyphenyl)-Δ2,3-oxazoline], the results for the IC50 in the assay with NCI-H460 cells (values in nM) and in the assay with HCT-15 cells (values in nM) were 680 nM and 450 nM, respectively.
The corresponding values for `COc1cc(C2CN=C(c3cc4ccccc4n3C)O2)cc(OC)c1OC` (stereo not drawn) [Example 34, 2-(1-methyl-indol-2-yl)-5-(3,4,5-trimethoxyphenyl)-Δ2,3-oxazoline] are 1500 nM and 650 nM.
With `COc1ccc(C2=NCC(c3cc(OC)c(OC)c(OC)c3)O2)cc1O` (stereo not drawn) [Example 2, 2-(3-hydroxy-4-methoxyphenyl)-5-(3,4,5-trimethoxyphenyl)-Δ2,3-oxazoline], the inhibition at 100 µM in the assay with NCI-H460 cells (NCI-460 cells, 10^-4 M) is 100%; in the assay on HCT-15 cells (10^-4 M), 100%.
Regarding `COc1cc(C2CN=C(c3ccn(C)c(=O)c3)O2)cc(OC)c1OC` (stereo not drawn) [Example 46, 2-(1-methyl-1H-pyridin-2-on-4-yl)-5-(3,4,5-trimethoxyphenyl)-Δ2,3-oxazoline], the IC50 came to 470 nM with NCI-H460 cells (values in nM) and 440 nM in the assay with HCT-15 cells (values in nM).
With `COc1cc(C2CN=C(c3ccc4c(c3)c(F)cn4C)O2)cc(OC)c1OC` (stereo not drawn) [Example 68], the IC50 in the assay on NCI-H460 cells (values in nM) was 150 nM; in the assay with HCT-15 cells (values in nM) it was 47 nM.
On to `COc1cc(OC)cc(C2=NCC(c3cc(OC)c(OC)c(OC)c3)O2)c1` (stereo not drawn) [Example 4, 2-(3,5-dimethoxyphenyl)-5-(3,4,5-trimethoxyphenyl)-Δ2,3-oxazoline], for which the inhibition at 100 µM amounted to 100% in the assay on NCI-H460 cells (NCI-460 cells, 10^-4 M) and 100% with HCT-15 cells (10^-4 M).
For the molecule `COc1cc(C2CN=C(c3cc(Cl)c4[nH]ccc4c3)O2)cc(OC)c1OC` (stereo not drawn) [Example 65, 2-(7-chloro-5-indolyl)-5-(3,4,5-trimethoxyphenyl)-Δ2,3-oxazoline], the IC50 came out at 51 nM in the assay on NCI-H460 cells (values in nM) and 37 nM with HCT-15 cells (values in nM).
Take `COc1cc(C2CN=C(c3cc(C)c4c(ccn4C)c3)O2)cc(OC)c1OC` (stereo not drawn) [Example 73, 2-(1,7-dimethyl-5-indolyl)-5-(3,4,5-trimethoxyphenyl)-Δ2,3-oxazoline]: the concentration for half-maximal inhibition (IC50) with NCI-H460 cells (values in nM) turned out to be 41 nM; in the assay with HCT-15 cells (values in nM), 34 nM.
In the case of `COc1cc(C2CN=C(c3ccc4ccn(C)c4c3)O2)cc(OC)c1OC` (stereo not drawn) [Example 28, 2-(1-methylindol-6-yl)-5-(3 4.5-trimethoxyphenyl)-Δ2,3-oxazoline], the IC50 in the assay on NCI-H460 cells (values in nM) came out at 390 nM; with HCT-15 cells (values in nM) it was 210 nM.
In the case of `COc1cc(C2CN=C(c3cc(C)c4c(c3)cc(C)n4C)O2)cc(OC)c1OC` (stereo not drawn) [Example 74, 2-(1,2,7-trimethylindol-5-yl)-5-(3,4,5-trimethoxyphenyl)-Δ2,3-oxazoline], the IC50 amounted to 1200 nM in the assay on NCI-H460 cells (values given in μM) and 1300 nM in the assay on HCT-15 cells (values given in μM).
Take `COc1cc(C2CN=C(c3ccc(N(C)C)cc3)O2)cc(OC)c1OC` (stereo not drawn) [Example 1, 2-(4-dimethylaminophenyl)-5-(3,4,5-trimethoxyphenyl)-Δ2,3-oxazoline]: the inhibition at 100 µM stood at 100% in the assay on NCI-H460 cells (NCI-460 cells, 10^-4 M) and 100% with HCT-15 cells (10^-4 M).
In the case of `COc1cc(C2=NCC(c3cc(OC)c(OC)c(OC)c3)O2)ccc1N` (stereo not drawn) [Example 10, 2-(4-amino-3-methoxyphenyl)-5-(3,4,5-trimethoxyphenyl)-Δ2,3-oxazoline], the inhibition at 100 µM in the assay with NCI-H460 cells (NCI-460 cells, 10^-4 M) turned out to be 100%; in the assay on HCT-15 cells (10^-4 M) it was 100%.
In the case of `COc1cc(C2CN=C(c3ccc4[nH]cc(C(C)=O)c4c3)O2)cc(OC)c1OC` (stereo not drawn) [Example 5, 2-(3-acetylindol-5-yl)-5-(3,4,5-trimethoxyphenyl)-Δ2,3-oxazoline], the “NCI-460 (% Inhibition at 10^-4 M)” value in the assay on NCI-H460 cells (NCI-460 cells, 10^-4 M) is 100%. For the same molecule, the “HCT-15 (% Inhibition at 10^-4 M)” value with HCT-15 cells (10^-4 M) worked out at 100%.
In the assay on HCT-15 cells (values given in μM), `COc1cc(C2CN=C(c3ccc4[nH]cc(C(=O)C(F)(F)F)c4c3)O2)cc(OC)c1OC` (stereo not drawn) [Example 76, 2-(3-trifluoroacetyl-5-indolyl)-5-(3,4,5-trimethoxyphenl)-Δ2,3-oxazoline] had an IC50 of 1300 nM.
As to `COc1cc(C2CN=C(c3nccc4ccccc34)O2)cc(OC)c1OC` (stereo not drawn) [Example 38, 2-(1-isoquinolinyl)-5-(3,4,5-trimethoxyphenyl)-Δ2,3-oxazoline], the figures for the IC50 in the assay on NCI-H460 cells (values given in μM) and in the assay with HCT-15 cells (values given in μM) were 78000 nM and 63000 nM, respectively.
`COc1cc(C2CN=C(c3ccc4c(c3)CCN4C)O2)cc(OC)c1OC` (stereo not drawn) [Example 21, 2-(1-methyl-2,3-dihydro-indol-5-yl)-5-(3,4,5-trimethoxyphenyl)-Δ2,3-oxazoline]: the inhibition at 100 µM in the assay with NCI-H460 cells (NCI-460 cells, 10^-4 M) worked out at 92.4%; in the assay with HCT-15 cells (10^-4 M), 100%.
Turning to `COc1cc(C2CN=C(c3cc(Cl)c4c(ccn4C)c3)O2)cc(OC)c1OC` (stereo not drawn) [Example 66, 2-(1-methyl-7-chloro-5-indolyl)-5-(3,4,5-trimethoxyphenyl)-Δ2,3-oxazoline], the IC50 in the assay on NCI-H460 cells (values in nM) worked out at 100 nM; in the assay with HCT-15 cells (values in nM) it was 46 nM.
As for `COc1cc(C2CN=C(c3ccc4c(ccn4CC(F)(F)F)c3)O2)cc(OC)c1OC` (stereo not drawn) [Example 78, 2-(1-(2,2,2-trifluoroethyl)indol-5-yl)-5-(3,4,5-trimethoxyphenyl)-Δ2,3-oxazoline], the IC50 in the assay with NCI-H460 cells (values given in μM) was 3500 nM; in the assay with HCT-15 cells (values given in μM), 1900 nM.
Regarding `COc1cc(C2CN=C(c3ccc4cc[nH]c4c3)O2)cc(OC)c1OC` (stereo not drawn) [Example 27, 2-(6-indolyl)-5-(3,4,5-trimethoxyphenyl)-Δ2,3-oxazoline], the IC50 with NCI-H460 cells (values in nM) was 170 nM; in the assay on HCT-15 cells (values in nM) it was 83 nM.
The corresponding values for `COc1cc(C2CN=C(c3cccc4cc[nH]c34)O2)cc(OC)c1OC` (stereo not drawn) [Example 31, 2-(7-indolyl)-5-(3,4,5-trimethoxyphenyl)-Δ2,3-oxazoline] are 470 nM and 580 nM.
In turn, `COc1cc(C2CN=C(c3cccc4ccn(C)c34)O2)cc(OC)c1OC` (stereo not drawn) [Example 32, 2-(1-methylindol-7-yl)-5-(3,4,5-trimethoxyphenyl)-Δ2,3-oxazoline] registered an IC50 in the assay with HCT-15 cells (values given in μM) of 16000 nM.

The term IC50 denotes the concentration needed to halve the response being measured. A low value points to greater potency. As usually defined, the inhibition is the share of the control response that was lost under treatment.
